Laboratory results published in patent US20260337153A1, “IONIZABLE AMINE LIPIDS” (Intellia Therapeutics, Inc., priority 2023, published 2026).
Where “and” joins values, the source holds several entries; their conditions need not be identical. Equal values may be shown once. Read-outs that look alike come from different tables or passages of the source.

Tests used:
Format in all cases: physicochemical
[1] = pKa of unformulated amine lipid by TNS fluorescence; settings: sodium phosphate buffer, unformulated amine lipid, TNS, read-out: Lipid pKa
Method: The pKa of each amine lipid was determined according to the method in Jayaraman, et al. (Angew Chem Int Ed Engl 51(34), 2012, 8529-8533) with the following adaptations. The pKa was determined for unformulated amine lipid in ethanol. Lipid stock solutions (2.94 mM) were diluted into Sodium Phosphate Buffers (0.1 M, Boston Bioproducts) of different pH (pH-range: 4.5-9.0) yielding a final lipid concentration of approx. 100 μM. The test samples were supplemented with TNS {6-(p-Toluidino)-2-naphthalenesulfonic acid sodium salt}, incubated and the fluorescence intensity was measured using excitation and emission wavelengths of 321 nm and 448 nm, respectively. The recorded data were normalized and the respective pKa values were derived from sigmoidal fitting.

[2] = LNP encapsulation efficiency of RNA (Ribogreen fluorescence assay); settings: sgRNA:mRNA 1:2
Method: (§1) LNP compositions are analyzed for average particle size, polydispersity index (pdi), total RNA content, encapsulation efficiency of RNA, and zeta potential. LNP compositions may be further characterized by lipid analysis, AF4-MALS, NTA, and/or cryo-EM.
Encapsulation efficiency is calculated as (Total RNA−Free RNA)/Total RNA. A fluorescence-based assay (Ribogreen®, ThermoFisher Scientific) is used to determine total RNA concentration and free RNA. LNP samples are diluted appropriately with 1×TE buffer containing 0.2% Triton-X 100 to determine total RNA or 1×TE buffer to determine free RNA. Standard curves are prepared by utilizing the starting RNA solution used to make the compositions and diluted in 1×TE buffer+/−0.2% Triton-X 100. Diluted RiboGreen® dye (according to the manufacturer's instructions) is then added to each of the standards and samples and allowed to incubate for approximately 10 minutes at room temperature, in the absence of light. A SpectraMax M5 Microplate Reader (Molecular Devices) is used to read the samples with excitation, auto cutoff and emission wavelengths set to 488 nm, 515 nm, and 525 nm respectively. Total RNA and free RNA are determined from the appropriate standard curves. Alternatively, the total RNA concentration can be determined by a reverse-phase ion-pairing (RP-IP) HPLC method. Triton X-100 is used to disrupt the LNPs, releasing the RNA. The RNA is then separated from the lipid components chromatographically by RP-IP HPLC and quantified against a standard curve using UV absorbance at 260 nm.
(§2) In vivo editing efficiency for materials delivered with formulations including various amine lipid (or ionizable lipid) compounds in Experiments 1 through 14 as described in Tables 3 and 4 was assessed. Editing was measured using G000534 (SEQ ID NO: 5) which targets the rat TTR gene. Lipids described above were assessed for efficacy through in vivo editing experiments. LNPs were formulated at a 1:2 w/w ratio of sgRNA (SEQ ID NO: 5) and Cas9 mRNA (SEQ ID NO: 3). In Experiments 1 through 13, lipid components of the LNP are formulated in a molar ratio of 50% ionizable lipid, 38% cholesterol, 9% DSPC, and 3% PEG2K-DMG. In Experiment 14, lipid components of the LNP are formulated in a molar ratio of 50% ionizable lipid, 38% cholesterol, 9% DSPC, and 3% C13 Ether. The final LNPs used in different in vivo editing experiments were characterized to determine the encapsulation efficiency (% E), polydispersity index (PDI), and average particle size (Z-avg and number mean) according to the analytical methods provided above. The pKa values of each of the following ionizable lipids were also measured to be in the range of about 5.8 to about 7.6.
(§3) In vivo editing efficiency for materials delivered with formulations including various combinations of amine lipid (or ionizable lipid) and PEG lipid compounds was assessed as described in Tables 5 and 6. Editing was measured using G000534 (SEQ ID NO: 5) which targets the rat TTR gene. Lipids described above were assessed for efficacy through in vivo editing experiments. LNPs were formulated at a 1:2 w/w ratio of sgRNA (SEQ ID NO: 5) and Cas9 mRNA (SEQ ID NO:3). Lipid components of the LNP are formulated in a molar ratio of 50% ionizable lipid, 38% cholesterol, 9% DSPC, and 3% of various PEG lipids (e.g., PEG2K-DMG, C13 Ether, C14 Ether). The final LNPs used in different in vivo editing experiments were characterized to determine the encapsulation efficiency (% E), polydispersity index (PDI), and average particle size (Z-avg and number mean) according to the analytical methods provided above. The pKa values of each of the following ionizable lipids were also measured to be in the range of about 5.8 to about 7.6.
In vivo editing efficiency for materials delivered with formulations including various amine lipid (or ionizable lipid) compounds as described in Tables 7 and 8 was assessed. […]

[3] = LNP average particle size and polydispersity by dynamic light scattering; settings: sgRNA:mRNA 1:2
Method: Dynamic Light Scattering (“DLS”) is used to characterize the polydispersity index (“pdi” or “PDI”) and size of the LNPs of the present disclosure. DLS measures the scattering of light that results from subjecting a sample to a light source. PDI, as determined from DLS measurements, represents the distribution of particle size (around the mean particle size) in a population, with a perfectly uniform population having a PDI of zero.
as §1
Average particle size and polydispersity are measured by dynamic light scattering (DLS) using a Malvern Zetasizer DLS instrument. LNP samples were diluted with PBS buffer prior to being measured by DLS. Z-average diameter (“Z-avg”) which is an intensity-based measurement of average particle size was reported along with number average diameter (“number mean”) and PDI. A Malvern Zetasizer instrument is also used to measure the zeta potential of the LNP. Samples are diluted 1:17 (50 μL into 800 μL) in 0.1×PBS, pH 7.4 prior to measurement.
as §2, §3
In vivo editing efficiency for materials delivered with formulations including various amine lipid (or ionizable lipid) compounds as described in Tables 7 and 8 was assessed. Editing was measured using G000534 (SEQ ID NO: 5) which targets the rat TTR gene. Lipids described above were assessed for efficacy through in vivo editing experiments. LNPs were formulated at a 1:2 w/w ratio of sgRNA (SEQ ID NO: 5) and Cas9 mRNA (SEQ ID NO: 3). Lipid components of the LNP were formulated in a molar ratio of 50% ionizable lipid, 38% cholesterol, 9% DSPC, and 3% C13 Ether. […]

[4] = Table 3, Experiment 14, LNP with 3% C13 Ether
[5] = Table 3, Experiments 1-13, LNP 50% ionizable lipid, 38% cholesterol, 9% DSPC, 3% PEG2K-DMG

Row | SMILES | % E (encapsulation efficiency) [2, 5] | Number mean [3, 5] | PDI [3, 5] | Z-avg [3, 5] | other results
1 | CCCCCCCCC(CCCCCCCC)C(=O)OCC(COC(=O)NCCN(CC)CC)COC(=O)C(CCCCCCCC)CCCCCCCC [Compound 40, 2-((((2-(diethylamino)ethyl)carbamoyl)oxy)methyl)propane-1,3-diyl bis(2-octyldecanoate)] |  |  |  |  | pKa ([1]; Table 2): 5.97; % E (encapsulation efficiency) [2, 4]: 92%; Number mean [3, 4]: 48 nm; PDI [3, 4]: 0.062; Z-avg [3, 4]: 57 nm
2 | CCCCCCCCOC(CCC(=O)OCC(COC(=O)NCCN(CC)CC)COC(=O)C(CCCC)CCCCCC)OCCCCCCCC (centres unmarked) [Compound 48, 3-((4,4-bis(octyloxy)butanoyl)oxy)-2-((((2-(diethylamino)ethyl)carbamoyl)oxy)methyl)propyl 2-butyloctanoate] | 94% | 81 nm | 0.02 | 87 nm | 
3 | CCCCC/C=C\C/C=C\CCCCCCCC(=O)OCC(CCCCCCCCC(=O)OCC(CCCC)CCCCCC)COC(=O)OCCCN(CC)CC (centres unmarked) [Compound 7, 11-((2-butyloctyl)oxy)-2-((((3-(diethylamino)propoxy)carbonyl)oxy)methyl)-11-oxoundecyl (9Z,12Z)-octadeca-9,12-dienoate] | 98% | 68 nm | 0.03 | 74 nm | pKa ([1]; Table 2): 6.09
4 | CCCCCCCCCCCC(=O)OCC(COC(=O)CCC(OCCCCCCCC)OCCCCCCCC)COC(=O)OCCCN(CC)CC (centres unmarked) [Compound 41, 3-((4,4-bis(octyloxy)butanoyl)oxy)-2-((((3-(diethylamino)propoxy)carbonyl)oxy)methyl)propyl Dodecanoate] | 98% | 75 nm | 0.05 | 83 nm | 
5 | CCCCCCCCOC(CCC(=O)OCC(COC(=O)CCC(OCCCCCCCC)OCCCCCCCC)COC(=O)OCCCN(CC)CC)OCCCCCCCC [Compound 1, 2-((((3-(diethylamino)propoxy)carbonyl)oxy)methyl)propane-1,3-diyl bis(4,4-bis(octyloxy)butanoate)] | 98% | 70 nm | 0.06 | 80 nm | 
6 | CCCCCCCCC(CCCCCCCC)CC(=O)OCCC(=O)OCC(COC(=O)CCCC(=O)OC(CCCCCCCC)CCCCCCCC)COC(=O)NCCN(CC)CC (centres unmarked) [Compound 63, 3-(((2-(diethylamino)ethyl)carbamoyl)oxy)-2-(((3-((3-octylundecanoyl)oxy)propanoyl)oxy)methyl)propyl heptadecan-9-yl Glutarate] |  |  |  |  | % E (encapsulation efficiency) ([2]; Table 7, LNP with 3% C13 Ether): 96%; Number mean ([3]; Table 7, LNP with 3% C13 Ether): 73 nm; PDI ([3]; Table 7, LNP with 3% C13 Ether): 0.02; Z-avg ([3]; Table 7, LNP with 3% C13 Ether): 80 nm
7 | CCCCCCCCOC(CCC(=O)OCC(COC(=O)CC(CCCC)CCCCCC)COC(=O)OCCCN(CC)CC)OCCCCCCCC (centres unmarked) [Compound 43, 3-((4,4-bis(octyloxy)butanoyl)oxy)-2-((((3-(diethylamino)propoxy)carbonyl)oxy)methyl)propyl 3-butylnonanoate] | 98% | 75 nm | 0.04 | 85 nm | 

More lines, main results first:

Row | % E (encapsulation efficiency) [2, 5] | Number mean [3, 5] | PDI [3, 5] | Z-avg [3, 5] | SMILES | other results
8 | 98% | 65 nm and 72 nm | 0.01 | 79 nm and 76 nm | CCCCCCCCC(CCCCCCCC)OC(=O)CCCC(=O)OCC(COC(=O)CCCC(=O)OC(CCCCCCCC)CCCCCCCC)COC(=O)OCCCN(CC)CC [Compound 2, O,O′-(2-((((3-(diethylamino)propoxy)carbonyl)oxy)methyl)propane-1,3-diyl) di(heptadecan-9-yl) diglutarate] | pKa ([1]; Table 2): 6.23; % E (encapsulation efficiency) [2, 4]: 99%; Number mean [3, 4]: 74 nm; PDI [3, 4]: 0.017; Z-avg [3, 4]: 80 nm
9 | 95% and 97% | 74 nm and 80 nm | 0.04 and 0.03 | 90 nm and 86 nm | CCCCC/C=C\C/C=C\CCCCCCCC(=O)OCC(COC(=O)CCCC(=O)OC(CCCCCCCC)CCCCCCCC)COC(=O)OCCCN(CC)CC (centres unmarked) [Compound 56] | pKa ([1]; additional ionizable lipids (53-61)): 6.1
10 | 97% | 90 nm | 0.01 | 109 nm | CCCCCCC(CCCC)COC(=O)CCCCCC(=O)OCC(COC(=O)CCCCCC(=O)OCC(CCCC)CCCCCC)COC(=O)OCCCN(CC)CC (centres unmarked) [Compound 5, 7,7′-bis(2-butyloctyl) O′1,O1-(2-((((3-(diethylamino)propoxy)carbonyl)oxy)methyl)propane-1,3-diyl) di(heptanedioate)] | 
11 | 96% | 72 nm | 0.004 | 86 nm | CCCCCCCCC(CCCCCCCC)OC(=O)CCCCCC(=O)OCC(COC(=O)CCCCCC(=O)OC(CCCCCCCC)CCCCCCCC)COC(=O)OCCCN(CC)CC [Compound 3, O′1,O1-(2-((((3-(diethylamino)propoxy)carbonyl)oxy)methyl)propane-1,3-diyl) 7,7′-di(heptadecan-9-yl) di(heptanedioate)] | 
12 | 98% | 87 nm | 0.056 | 103 nm | CCCCCCCCC(CCCCCCCC)OC(=O)CCCC(=O)OCC(C)(COC(=O)CCCC(=O)OC(CCCCCCCC)CCCCCCCC)COC(=O)NCCN(CC)CC [Compound 36, O,O′-(2-((((2-(diethylamino)ethyl)carbamoyl)oxy)methyl)-2-methylpropane-1,3-diyl) di(heptadecan-9-yl) diglutarate] | 
